Assay results: patent US20150031668A1, “CHROMAN DERIVATIVES AS TRPM8 INHIBITORS” (AMGEN INC., priority 2013, published 2015)

Each compound was assayed against T1, human TRPM8 (Homo sapiens, UniProt Q7Z2W7) (assay: Luminescence readout assay for measuring intracellular calcium (aequorin, CHO cells expressing human TRPM8; icilin, L-menthol or cold activation)). Conditions: not given.
T1 construct: expressed in transfected cells; host or cells: Chinese hamster ovary (CHO) cells, T-REx tetracycline-inducible expression system (Invitrogen); co-transfected with pcDNA3.1 aequorin
T1 sequence (Q7Z2W7 whole entry): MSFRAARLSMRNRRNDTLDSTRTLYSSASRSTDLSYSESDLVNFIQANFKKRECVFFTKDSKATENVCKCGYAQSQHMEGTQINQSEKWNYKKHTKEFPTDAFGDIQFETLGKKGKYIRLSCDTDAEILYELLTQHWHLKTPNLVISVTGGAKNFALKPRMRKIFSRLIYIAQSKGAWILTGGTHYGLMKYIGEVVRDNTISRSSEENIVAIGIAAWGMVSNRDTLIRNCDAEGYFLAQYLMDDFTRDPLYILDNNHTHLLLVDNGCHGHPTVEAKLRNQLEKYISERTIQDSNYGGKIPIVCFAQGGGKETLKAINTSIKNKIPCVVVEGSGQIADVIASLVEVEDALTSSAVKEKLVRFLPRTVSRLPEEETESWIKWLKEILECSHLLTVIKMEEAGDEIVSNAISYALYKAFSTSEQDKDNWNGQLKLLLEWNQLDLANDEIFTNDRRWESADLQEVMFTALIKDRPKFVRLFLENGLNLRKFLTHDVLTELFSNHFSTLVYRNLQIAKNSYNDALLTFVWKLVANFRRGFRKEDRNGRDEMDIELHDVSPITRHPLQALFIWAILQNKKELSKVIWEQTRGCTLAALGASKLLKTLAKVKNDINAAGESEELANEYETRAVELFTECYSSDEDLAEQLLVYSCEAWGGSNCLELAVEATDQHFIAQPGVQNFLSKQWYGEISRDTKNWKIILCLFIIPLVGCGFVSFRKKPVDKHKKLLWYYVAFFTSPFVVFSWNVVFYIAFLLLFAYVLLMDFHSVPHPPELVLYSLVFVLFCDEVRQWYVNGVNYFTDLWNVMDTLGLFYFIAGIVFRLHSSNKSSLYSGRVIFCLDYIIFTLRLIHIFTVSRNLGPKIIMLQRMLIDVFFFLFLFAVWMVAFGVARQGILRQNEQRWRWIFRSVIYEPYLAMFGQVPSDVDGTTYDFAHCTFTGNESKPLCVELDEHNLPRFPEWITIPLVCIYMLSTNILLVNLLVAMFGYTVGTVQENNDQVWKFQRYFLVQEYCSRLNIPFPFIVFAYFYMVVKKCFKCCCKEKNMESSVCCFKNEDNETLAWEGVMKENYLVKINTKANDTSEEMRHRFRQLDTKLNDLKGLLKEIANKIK
Format: cell-based
Method: Luminescence Readout Assay for Measuring Intracellular Calcium
A stable Chinese hamster ovary cell line expressing human TRPM8 was generated using tetracycline inducible T-REx™ expression system from Invitrogen, Inc. (Carlsbad, Calif.). […] Twenty four hours before the assay, cells were seeded in 96-well plates and TRPM8 expression was induced with 0.5 μg/ml tetracycline. On the day of the assay, culture media was removed and cells were incubated with assay buffer
Potential antagonists were added 2.5 min prior to the addition of agonist, 1 μM icilin, 100 μM L-menthol, or 1 min prior to the addition of cold buffer (<10° C.). The luminescence was measured by a CCD camera based FLASH-luminometer built by Amgen, Inc. A cooling device attached to FLASH luminometer was used for cold activation.

Compound O=C1CCN(C(=O)N[C@]2(c3ccc(OC(F)(F)F)c(F)c3)CCOc3cccnc32)CC1 [Example 103, (S)-N-(4-(3-fluoro-4-(trifluoromethoxy)phenyl)-3,4-dihydro-2H-pyrano[3,2-b]pyridin-4-yl)-4-oxopiperidine-1-carboxamide] has an IC50 of 278 nM.

Same assay, conditions: CHO cells expressing human TRPM8, icilin activation (1 μM), aequorin luminescence; read-out: hTRPM8 IC50

First: O=C(Nc1cccc(F)c1)N[C@]1(c2ccc(C(F)(F)F)cc2)CCOc2cccnc21 [Example 72, (S)-1-(3-fluorophenyl)-3-(4-(4-(trifluoromethyl)phenyl)-3,4-dihydro-2H-pyrano[3,2-b]pyridin-4-yl)urea]
Second: O=C(Nc1ccc(F)cc1)N[C@]1(c2ccc(C(F)(F)F)cc2)CCOc2cccnc21 [Example 74, (S)-1-(4-fluorophenyl)-3-(4-(4-(trifluoromethyl)phenyl)-3,4-dihydro-2H-pyrano[3,2-b]pyridin-4-yl)urea]
The IC50 of the first is 4.5-fold higher: 112 nM for the first, 25 nM for the second.

Compared with O=C(Nc1cccnc1)N[C@]1(c2ccc(C(F)(F)F)cc2)CCOc2cccnc21 [Example 73, (S)-1-(pyridin-3-yl)-3-(4-(4-(trifluoromethyl)phenyl)-3,4-dihydro-2H-pyrano[3,2-b]pyridin-4-yl)urea], O=C(Nc1cccnc1)N[C@]1(c2ccc(OC(F)(F)F)c(F)c2)CCOc2cccnc21 [Example 92, (S)-1-(4-(3-fluoro-4-(trifluoromethoxy)phenyl)-3,4-dihydro-2H-pyrano[3,2-b]pyridin-4-yl)-3-(pyridin-3-yl)urea] is 2.8-fold higher in IC50: 19 nM for the first, 54 nM for the second. The first is the more potent here.

Compared with O=S(=O)(N[C@]1(c2ccc(OC(F)(F)F)c(F)c2)CCOc2cccnc21)c1ccccc1 [Example 76, (S)—N-(4-(3-fluoro-4-(trifluoromethoxy)phenyl)-3,4-dihydro-2H-pyrano[3,2-b]pyridin-4-yl)benzenesulfonamide 2,2,2-trifluoroacetate], O=S(=O)(N[C@]1(c2ccc(OC(F)(F)F)c(F)c2)CCOc2cccnc21)c1cccnc1 [Example 77, (S)—N-(4-(3-fluoro-4-(trifluoromethoxy)phenyl)-3,4-dihydro-2H-pyrano[3,2-b]pyridin-4-yl)pyridine-3-sulfonamide 2,2,2-trifluoroacetate] is 6.5-fold higher in IC50: 206 nM for the first, 1340 nM for the second.

Compared with CC(C)(C)OC(=O)N[C@]1(c2ccc(OC(F)(F)F)c(F)c2)CCOc2cccnc21 [Example 78, (S)-tert-butyl (4-(3-fluoro-4-(trifluoromethoxy)phenyl)-3,4-dihydro-2H-pyrano[3,2-b]pyridin-4-yl)carbamate], O=C(N[C@]1(c2ccc(OC(F)(F)F)c(F)c2)CCOc2cccnc21)N1CCC1 [Example 105, (S)-N-(4-(3-fluoro-4-(trifluoromethoxy)phenyl)-3,4-dihydro-2H-pyrano[3,2-b]pyridin-4-yl)azetidine-1-carboxamide] is 7-fold higher in IC50: 58 nM for the first, 404 nM for the second.

Going from Cn1cc(C(=O)NC2(c3ccc(C(F)(F)F)cc3)CCOc3cccnc32)ccc1=O (centres unmarked) [Example 79, 1-methyl-6-oxo-N-(4-(4-(trifluoromethyl)phenyl)-3,4-dihydro-2H-pyrano[3,2-b]pyridin-4-yl)-1,6-dihydropyridine-3-carboxamide] to O=C(NC1(c2ccc(C(F)(F)F)cc2)CCOc2cccnc21)c1ccc2c(c1)CNC2=O (centres unmarked) [Example 80, 1-oxo-N-(4-(4-(trifluoromethyl)phenyl)-3,4-dihydro-2H-pyrano[3,2-b]pyridin-4-yl)isoindoline-5-carboxamide], the IC50 falls from 334 nM to 21 nM (16-fold). The second is the more potent here.

Going from O=C(N[C@]1(c2ccc3ccccc3c2)CCOc2cccnc21)c1ccc(=O)[nH]c1 [Example 81, (S)-N-(4-(naphthalen-2-yl)-3,4-dihydro-2H-pyrano[3,2-b]pyridin-4-yl)-6-oxo-1,6-dihydropyridine-3-carboxamide] to O=C(Nc1ccccc1C(=O)O)N[C@]1(c2ccc(OC(F)(F)F)c(F)c2)CCOc2cccnc21 [Example 106, (S)-2-(3-(4-(3-fluoro-4-(trifluoromethoxy)phenyl)-3,4-dihydro-2H-pyrano[3,2-b]pyridin-4-yl)ureido)benzoic acid], the IC50 falls from 124 nM to 39 nM (3.2-fold).

Compared with O=C(Nc1cnccn1)N[C@]1(c2ccc(OC(F)(F)F)c(F)c2)CCOc2cccnc21 [Example 82, (S)-1-(4-(3-fluoro-4-(trifluoromethoxy)phenyl)-3,4-dihydro-2H-pyrano[3,2-b]pyridin-4-yl)-3-(pyrazin-2-yl)urea], O=C(Nc1ccncn1)N[C@]1(c2ccc(OC(F)(F)F)c(F)c2)CCOc2cccnc21 [Example 89, (S)-1-(4-(3-fluoro-4-(trifluoromethoxy)phenyl)-3,4-dihydro-2H-pyrano[3,2-b]pyridin-4-yl)-3-(pyrimidin-4-yl)urea] is 2.3-fold lower in IC50: 134 nM for the first, 58 nM for the second. The second is the more potent here.

Compared with COC(=O)c1ccc(NC(=O)N[C@]2(c3ccc(OC(F)(F)F)c(F)c3)CCOc3cccnc32)nc1 [Example 84, (S)-methyl 6-(3-(4-(3-fluoro-4-(trifluoromethoxy)phenyl)-3,4-dihydro-2H-pyrano[3,2-b]pyridin-4-yl)ureido)nicotinate], COC(=O)c1ccc(NC(=O)N[C@]2(c3ccc(OC(F)(F)F)c(F)c3)CCOc3cccnc32)cn1 [Example 87, (S)-methyl 5-(3-(4-(3-fluoro-4-(trifluoromethoxy)phenyl)-3,4-dihydro-2H-pyrano[3,2-b]pyridin-4-yl)ureido)picolinate] is 11-fold lower in IC50: 266 nM for the first, 24 nM for the second.

COC(=O)c1ccccc1NC(=O)N[C@]1(c2ccc(OC(F)(F)F)c(F)c2)CCOc2cccnc21 [Example 86, (S)-methyl 2-(3-(4-(3-fluoro-4-(trifluoromethoxy)phenyl)-3,4-dihydro-2H-pyrano[3,2-b]pyridin-4-yl)ureido)benzoate] and COC(=O)c1cccc(NC(=O)N[C@]2(c3ccc(OC(F)(F)F)c(F)c3)CCOc3cccnc32)c1 [Example 91, (S)-methyl 3-(3-(4-(3-fluoro-4-(trifluoromethoxy)phenyl)-3,4-dihydro-2H-pyrano[3,2-b]pyridin-4-yl)ureido)benzoate] are the same in IC50: 19 nM for the first, 19 nM for the second.

First: O=C(Nc1ccc(Br)nc1)N[C@]1(c2ccc(OC(F)(F)F)c(F)c2)CCOc2cccnc21 [Example 88, (S)-1-(6-bromopyridin-3-yl)-3-(4-(3-fluoro-4-(trifluoromethoxy)phenyl)-3,4-dihydro-2H-pyrano[3,2-b]pyridin-4-yl)urea]
Second: O=C(Nc1cccnc1Br)N[C@]1(c2ccc(OC(F)(F)F)c(F)c2)CCOc2cccnc21 [Example 93, (S)-1-(2-bromopyridin-3-yl)-3-(4-(3-fluoro-4-(trifluoromethoxy)phenyl)-3,4-dihydro-2H-pyrano[3,2-b]pyridin-4-yl)urea]
The IC50 of the first is 5.2-fold higher: 115 nM for the first, 22 nM for the second. The second is the more potent here.

First: COC(=O)c1ccc(NC(=O)N[C@]2(c3ccc(OC(F)(F)F)c(F)c3)CCOc3cccnc32)cc1 [Example 90, (S)-methyl 4-(3-(4-(3-fluoro-4-(trifluoromethoxy)phenyl)-3,4-dihydro-2H-pyrano[3,2-b]pyridin-4-yl)ureido)benzoate]
Second: O=C(Nc1ccncc1)N[C@]1(c2ccc(OC(F)(F)F)c(F)c2)CCOc2cccnc21 [Example 96, (S)-1-(4-(3-fluoro-4-(trifluoromethoxy)phenyl)-3,4-dihydro-2H-pyrano[3,2-b]pyridin-4-yl)-3-(pyridin-4-yl)urea]
The IC50 of the first is 6-fold higher: 36 nM for the first, 6 nM for the second.

Compared with O=C(Nc1cnccc1Br)N[C@]1(c2ccc(OC(F)(F)F)c(F)c2)CCOc2cccnc21 [Example 94, (S)-1-(4-bromopyridin-3-yl)-3-(4-(3-fluoro-4-(trifluoromethoxy)phenyl)-3,4-dihydro-2H-pyrano[3,2-b]pyridin-4-yl)urea], O=C(Nc1ccccn1)N[C@]1(c2ccc(OC(F)(F)F)c(F)c2)CCOc2cccnc21 [Example 95, (S)-1-(4-(3-fluoro-4-(trifluoromethoxy)phenyl)-3,4-dihydro-2H-pyrano[3,2-b]pyridin-4-yl)-3-(pyridin-2-yl)urea] is 2.4-fold lower in IC50: 230 nM for the first, 94 nM for the second.

First: O=C(Nc1cc(F)c(O)c(F)c1)N[C@]1(c2ccc(OC(F)(F)F)c(F)c2)CCOc2cccnc21 [Example 97, (S)-1-(3,5-difluoro-4-hydroxyphenyl)-3-(4-(3-fluoro-4-(trifluoromethoxy)phenyl)-3,4-dihydro-2H-pyrano[3,2-b]pyridin-4-yl)urea]
Second: O=C(N[C@]1(c2ccc(OC(F)(F)F)c(F)c2)CCOc2cccnc21)N1CCCC1 [Example 104, (S)-N-(4-(3-fluoro-4-(trifluoromethoxy)phenyl)-3,4-dihydro-2H-pyrano[3,2-b]pyridin-4-yl)pyrrolidine-1-carboxamide]
The IC50 of the first is 1.9-fold higher: 159 nM for the first, 85 nM for the second.

Compared with O=C(N[C@]1(c2ccc(OC(F)(F)F)c(F)c2)CCOc2cccnc21)N1CCCCC1 [Example 98, (S)-N-(4-(3-fluoro-4-(trifluoromethoxy)phenyl)-3,4-dihydro-2H-pyrano[3,2-b]pyridin-4-yl)piperidine-1-carboxamide], O=C(N[C@]1(c2ccc(OC(F)(F)F)c(F)c2)CCOc2cccnc21)N1CCOCC1 [Example 101, (S)-N-(4-(3-fluoro-4-(trifluoromethoxy)phenyl)-3,4-dihydro-2H-pyrano[3,2-b]pyridin-4-yl)morpholine-4-carboxamide] is 33-fold higher in IC50: 23 nM for the first, 760 nM for the second. The first is the more potent here.

Compared with COC(=O)C1CCN(C(=O)N[C@]2(c3ccc(OC(F)(F)F)c(F)c3)CCOc3cccnc32)CC1 [Example 99, (S)-methyl 1-((4-(3-fluoro-4-(trifluoromethoxy)phenyl)-3,4-dihydro-2H-pyrano[3,2-b]pyridin-4-yl)carbamoyl)piperidine-4-carboxylate], O=C(N[C@]1(c2ccc(OC(F)(F)F)c(F)c2)CCOc2cccnc21)N1CCC(O)CC1 [Example 102, (S)-N-(4-(3-fluoro-4-(trifluoromethoxy)phenyl)-3,4-dihydro-2H-pyrano[3,2-b]pyridin-4-yl)-4-hydroxypiperidine-1-carboxamide] is 2.1-fold higher in IC50: 106 nM for the first, 218 nM for the second.

O=C(N[C@]1(c2ccc(OC(F)(F)F)c(F)c2)CCOc2cccnc21)N1CCC(F)(F)CC1 [Example 100] gave an IC50 of 187 nM.
